Measurements from paper PMC5352194, “Toward the development of a novel non-RGD cyclic peptide drug conjugate for treatment of human metastatic melanoma” (Oncotarget, 2016).

Legend:
[1] = tested on: non-malignant HEK293 cells; assay: Cell survival test (XTT assay), HEK293; assay type: cell-based, human; details: 48 hours, XTT (experiment repeated as for WM-266-4, 10μM), three repeats in quadruplicates
Procedure: (§1) The cytotoxicity of the compounds was determined by measuring the mitochondrial enzyme activity, using a commercial XTT assay kit (#20-30-100, Biological Industries, Beit-Haemek, Israel) according to the manufacturer protocol using 2×10^3 cells/well of a 96–well plate. The cells were cultured for 24 hours in growth medium followed by additional 48 hours with growth medium supplemented with different concentrations of the tested substances. The absorbance of the XTT reagent was measured with a TECAN Infinite M200 ELISA reader. The absorbencies were normalized to the absorbance of cells grown in medium and solvent. All the tests were repeated three times in quadruplicates.

[2] = tested on: WM-266-4 human metastatic melanoma cells; assay: Cell survival test (XTT assay), WM-266-4; assay type: cell-based; details: WM-266-4 cells, 10μM, 48 hours, three repeats in quadruplicates
Procedure: as §1

[3] = Chemo-stability (lactone ring opening), LC-MS; assay type: physicochemical; details: chemical stability, 0.1 mM in PBS pH 7.4, 37°C, 5 h incubation, samples injected twice
Procedure: Electron spray mass spectra (ESI-MS) were obtained using an Autoflex III smart-beam (MALDI, Bruker), Q-TOF micro (Waters) or an LCQ Fleet™ ion trap mass spectrometer (Finnigan/Thermo). HPLC/LC-MS analyses were made using Agilent infinity 1260 connected to Agilent quadruple LC-MS 6120 series equipped with ZORBAX SB-C18, 50 × 2.1 mm, 1.8 μm column. In all cases the eluent solvents were A (0.1% TFA in H2O) and B (0.1% TFA in ACN) and the elution gradient profile was: 100% A for first 4 min, 8 min (from min 4 to min 12) during which it reached 100% B, 4 min (from min 12 to min 16) of 100% B, 2 min (from min 16 to min 18) during which it returned back to A, and 2 min (from min 18 to min 20) of 100% A. The UV detection was at 254 nm. Column temperature was kept at 50°C. The flow rate was of 0.4 ml/min. The MS fragmentor was tuned on 100V on positive or negative mode.
0.1 mM CPT and ALOS4-CPT were incubated in acetate buffer at pH 4.5 and in PBS at pH 7.4 at 37°C. During the incubation period (24h - 144h), aliquots were removed at different time intervals, filtered and analyzed by LC-MS.

γH2A.X in HEK293 cells = assay: Western blot, γH2A.X (DSBs) in HEK293 cells; assay type: cell-based, human; details: 3 hours
Procedure: (§2) The cells were scraped and washed with PBS buffer. Cell lysates were prepared by sonication in 1 X SDS sample buffer supplemented with protease inhibitor cocktail (MBS539134, Millipore) and boiling for 10 min. The proteins were separated by SDS-PAGE and transferred to nitrocellulose membranes. The following antibodies were used for western blotting: active caspase 3 (C8487, Sigma), γH2AX (05-636, Millipore) and histone H3 (05-928, Millipore). The band intensities in a representative experiment were quantified by the ImageJ program.

[4] = tested on: active caspase 3 in HEK293 cells; assay: Western blot, active caspase 3 in HEK293 cells; assay type: cell-based, human
Procedure: as §2

WM-266-4 cells = assay: Confocal analysis of intracellular localization of CPT in live cells; assay type: cell-based, human; details: live WM-266-4 cells, 10 μM, 1 h, CPT fluorescence
Source text: Fluorescent images of ALOS4-FITC were acquired by Photometrics CoolSNAP HQ2 camera mounted on an Olympus iX81 fluorescent microscope. For confocal microscopy analysis the cells were transfected with a plasmid expressing GFP-fused histone H1E (pH1E-GFP) using Xfect polymer (ST0152, Clontech Laboratories, CA, USA) and were stained with CytoPainter Lysosomal Staining Kit - Red Fluorescence (ab112137, Abcam, Cambridge, MA, USA). Images were collected with a Zeiss LSM700 confocal microscope.

Compound: CN(C)CCN1C(=O)c2cccc3cc(N)cc(c23)C1=O [AM, Amonafide]
- Cell survival, % of the control cells [1]: 27%
- Cell survival, % of the control cells [2]: 48%

Compound: COc1cc([C@@H]2c3[nH]c4ccccc4c3C[C@H]3COC(=O)N32)cc(OC)c1O [AZA, Azatoxin]
- Cell survival, % of the control cells [1]: 44%
- Cell survival, % of the control cells [2]: 68%

Compound: CC[C@@]1(O)C(=O)OCc2c1cc1n(c2=O)Cc2cc3ccccc3nc2-1 [CPT, Camptothecin]
- Cell survival, % of the control cells [1]: 16%
- CPT that underwent lactone ring opening to carboxylate [3]: ~40%
- Increase in the levels of γH2A.X (γH2A.X in HEK293 cells): ~2 fold
- Increase in the levels of active caspase 3 ([4]; 3 hours): ~2 fold
- Increase in the levels of active caspase 3 ([4]; 24 hours): more than 5 fold
- Intracellular localization of CPT (WM-266-4 cells): accumulation of CPT inside the nucleus and to some less degree in the lysosome
- Cell survival, % of the control cells [2]: 65%
